According to patent US20160082133A1, “CHEMICAL EXCHANGE SATURATION TRANSFER (CEST) BASED MRI USING REPORTER GENES AND SUBSTRATES AND METHODS THEREOF” (The Johns Hopkins University, priority 2013, published 2016):

Columns and labels:
[1] = Quantification of exchange rates (QUESP, Bloch equation fitting); format: physicochemical; details: 11.7 T, pH 7.4, 37° C.
Protocol: Exchange rates were quantified with the saturation power dependent CEST approach (QUESP) and Bloch equation fitting (McMahon et al., Magn. Res. Med. 2006, 55, 836). For each sample, the MTRasym was measured at the imino resonance frequency for CEST saturation fields of 43, 85, 128, 170, 213, 255, 340, and 426 Hz while the saturation pulse duration was kept constant at 4000 ms. The Bloch equations were then fit numerically to these MTRasym values using MATLAB (Mathworks), and the exchange rates (kex, s^−1) were determined from the fits. Errors (95% confidence limits) were estimated using the F statistic.

[2] = In vitro CEST-MRI of thymidine analogues at 11.7 T; format: physicochemical; details: pH 7.4, 37° C.
Protocol: All compounds were dissolved at a concentration of 20 mM in phosphate-buffered saline (PBS) (pH=7.4) and placed in microcapillaries, as described previously.^17 CESTMRI experiments were performed on a vertical 11.7 T scanner (Bruker Avance system) at 37° C. A modified RARE sequence (TR/TE=10 000/9.4 ms; RARE factor=16; 1 mm slice thickness; FOV=11×11 mm^2; matrix size=64×32; resolution=0.17×0.34 mm^2; and NA=2) including a magnetization transfer (MT) module ([…]) was used to acquire CEST-weighted images from −8 to +8 ppm with increments of 0.2 ppm around the water resonance, which was assigned to be at 0 ppm. Pixel-based B0 correction was used as described before using the same parameters as above except for TR=1500 ms and B1/tsat=21 Hz/500 ms, with a sweep range from −2 to +2 ppm (0.1 ppm steps). Data processing was performed using custom-written scripts in MATLAB (Mathworks). Mean CEST spectra were plotted from an ROI for each sample, after B0 correction. MTRasym=100×(S^−Aω−S^AωA/^‘−’0)/3 was computed at different offsets Aω.

[3] = In vitro CEST imaging on a clinical 3 Tesla MRI scanner; format: physicochemical; details: 3.0 T, 20 mM, pH 7.4, room temperature
Protocol: Experiments were performed on a 3.0 Tesla Philips Achieva system (Philips Healthcare, Best, The Netherlands) using a body coil for transmit and a small animal solenoid coil for reception. CEST data were collected using a pulsed acquisition scheme (Jones, C. K. et al. Magn Reson Med 2011) with a 25 ms, 164 Hz frequency selective saturation pulse followed by a partial EPI readout (EPI factor 3). This TR interval was repeated until a 3D volume was acquired with 5 slices (slice thickness of 10 mm) across a field of view of 48×45 mm^2 (in plane resolution of 0.75 mm×0.9 mm) The acquisition per irradiation frequency consisted of TR/TE=65/5.5 ms and 4 averages. A total of 64 images were acquired which included an unsaturated volume and 63 saturated volumes with equally spaced frequency offsets between ±10 ppm (relative to the water frequency). The total acquisition time was 26 min 38 s. The experiments for B0 correction (Kim, M. et al. Magn Reson Med 2009, 61, 1441) were run the same except that 40 Hz frequency selective saturation pulse was used. Data processing was performed as described herein.

[4] = cited from earlier work
[5] = at 5 ppm for 20 nM agent (so in the source)

## C[C@H]1CN([C@H]2C[C@H](O)[C@@H](CO)O2)C(=O)NC1=O [Compound 1, (5S)-5,6-dihydrothymidine]
[1]
  kex of the imino proton: 0.8±0.2×10^3 s^−1
[1]; 5 ppm for 1-3, 6 ppm for dT
  kex, quantified exchange rates of imino and water protons: 0.8 ± 0.2 ×10^3 s^−1
[2]; [5]
  MTRasym (8.5 Hz): 6%
  MTRasym (170 Hz): 18%
  MTRasym (213 Hz): 19%
[2]; at 5 ppm for 20 mM agent
  MTRasym (128 Hz): 14%
[3]
  MTRasym value at 5 ppm, higher compared to dT: 40%
[4]
  pKa values of the imino proton obtained from the literature: 11.6^43
